Experimental data reported in PMC8497620, “Structure and inhibition of Cryptococcus neoformans sterylglucosidase to develop antifungal agents” (Nature Communications, 2021).
Values joined by “and” are separate entries in the source; they are usually repeats but may differ in a detail not shown here. Equal values may be shown once.

How the values were obtained:
[1] = molecular target: T1, C. neoformans Sgl1 (Cryptococcus neoformans var. grubii, UniProt J9W473); experiment: Kinetic evaluation of erg-glc and C6-NBD-GlcCer hydrolysis by Sgl1 (Triton X-100 mixed micelles, HPLC); type: biochemical; details: for Km, Michaelis-Menten best-fit value / Vmax, Michaelis-Menten best-fit value, Turnover: source data Fig 1d; for KM: substrate of Sgl1, Triton X-100 mixed micelles, 37 °C
Description: A 50 μL volume of Cn Sgl1 wild type and 50 μL of mixed micelles of lipid and Triton X-100 in 50 mM Bis-Tris buffer with 150 mM NaCl, 5 mM βME, and 5 mM DTT were mixed and incubated at 37 °C for 10 min (erg-glc, Avanti Polar Lipids) and 1 h (C6-NBD-glcCer, Matreya). For the substrate erg-glc the amount of protein was 5 ng. 150 ng protein was used for reactions with C6-NBD-GlcCer. After the incubation period, each reaction was quenched with a 2:1 chloroform:methanol solution and the organic phase was collected and dried. Then, the lipid content was resuspended in 50 μL methanol and applied to HPLC (Agilent Technologies). Total erg-glc and ergosterol was detected using absorbance at 282 nm on a C-8 column with a flow rate of 0.5 ml/min in methanol/water 90:10 ratio buffered with 1 mM ammonium formate and 0.2% formic acid. A 85:15 ratio of the same eluent was used for C6-NBD-GlcCer and C6-NBD-ceramide monitoring the fluorescence at 470/530 nm excitation/emission. The total area of product was normalized by the total area of its respective substrate.

[2] = tested on: human lung epithelial cancer cell line A549; details: A549 cells, 24 h, MTT
Description: The cells were maintained in Dulbecco’s modified eagle medium containing 10% fetal bovine serum and 1% penicillin–streptomycin. At passage 11, 10^5 cells were transferred into each well of 96-well plates and cultured for 18–24 h for the cells to adhere to the well surface. After, the medium was removed and a fresh medium containing the selected compounds at a concentration range of 1–512 μM were added to the wells. Controls with equivalent serial concentrations of DMSO were also evaluated and compared with a control without DMSO. The plate was incubated at 37 °C with 5% CO2. After 24 h, the supernatant was removed and 50 μL of 5 mg/mL 3-(4,5-dimethylthiazol-2-yl)-2,5-diphenyltetrazoliumbromide (MTT) solution in phosphate-buffered saline (PBS) was added to each well. The plates were incubated for an additional 4 h and the formazan crystals formed inside the cell was dissolved by adding 50 μL DMSO.

[3] = molecular target: T1, C. neoformans Sgl1; experiment: Sgl1 inhibition with res-glp substrate (HTS, single-compound dose-response); type: biochemical; details: res-glp as substrate (100 µM), primary screen; read-out: IC50 against Sgl1
Description: (§1) Resorufin-3β-D-glucopyranoside (res-glp, Sigma-Aldrich) enzyme kinetic assays were performed according to methods described by Urban et al.[16] with modifications. Reaction buffer contained 50 mM citric acid, 176 mM K2HPO4, pH 6, 0.01% Tween-20, and 10 mM sodium taurocholate. The reactions were carried out in black 96-well plates using 20 ng of enzyme with 100 μM res-glp substrate. In all, 10 μL/well of res-glp substrate was added to each well and the reaction was initiated by adding 20 μL enzyme (20 ng). After incubation at 37 °C for 30–40 min, the fluorescence was read at an excitation of 570 (±10) nm and an emission of 610 (±10) nm on a VersaMax™ Microplate Reader from Molecular Devices. A standard curve was prepared with serial dilutions of the free fluorophore, resorufin, in the same volume of assay buffer.
A ChemBridge DIVERSet-CL library (San Diego, CA) containing 50,000 compounds was screened to identify small molecules that inhibit C. neoformans Sgl1. The library was prepared in a 96-well plate format containing a cocktail of 10 compounds per well at 1 mM each in 100% DMSO. The cocktail plates were first diluted to 100 μM each (1:10 dilution in Dulbecco’s phosphate-buffered saline, DPBS) resulting in 10% DMSO. In order to screen the compound cocktails at […] in 1% DMSO in a final reaction volume of 30 μL an aliquot of 3 μL was added to 17 μL of buffer containing 20 ng of enzyme and the reaction was started adding 10 μL of 100 μM res-glp. A negative control without enzyme and positive controls with and without DMSO were prepared. The plates were incubated at 37 °C for 40 min.
The Z′-factor was used for the assessment of the efficiency of the HTS assay for each individual plate. Values greater than 0.5 has been considered as an indicator of an excellent screening assay quality.

[4] = tested on: C. neoformans Sgl1; experiment: Resorufin-3β-D-glucopyranoside enzyme kinetic assay and HTS assay parameters; type: biochemical, Cryptococcus neoformans; details: for Picomol of resorufin produced: time 20 min, 8 replicates
Description: as §1, with “buffer. All reactions were linear with respect to time and protein concentration and the pH, temperature, and dimethyl sulfoxide (DMSO) optimal tolerance was verified.” for “buffer.”
Supplementary Figure 6. High-throughput screening assay parameters. a. Resorufin 3β-D-glucopyranoside (res-glp) hydrolysis by Sgl1 releases the fluorescent product resorufin and glucose. b. Detection linearity of the system. c. Temperature evaluation of Sgl1 activity (n=6). d.
Reaction dependence on pH (n=4). e. DMSO tolerance (n=6). f. Enzyme concentration linearity (n=4). The reaction is linear up to 0.4 pmol of Sgl1 in presence of the substrate res-glp (100 µM). Data presented as mean values +/- SD of 2-3 independent experiments performed in duplicate (c-f). g.Time linearity until 50 min (n=4). h. Eight substrate concentrations tested with 0.2 pmol of Sgl1 until 20 min. i. Kinetic curve of Sgl1 (n=4). Error bars represent standard deviation of four independent experiments performed in technical duplicates. j. Kinetic parameters of Sgl1 reaction with res-glp.
(1 picture or pasted object on this page, not shown here)

T1 sequence (J9W473 entry or part of it): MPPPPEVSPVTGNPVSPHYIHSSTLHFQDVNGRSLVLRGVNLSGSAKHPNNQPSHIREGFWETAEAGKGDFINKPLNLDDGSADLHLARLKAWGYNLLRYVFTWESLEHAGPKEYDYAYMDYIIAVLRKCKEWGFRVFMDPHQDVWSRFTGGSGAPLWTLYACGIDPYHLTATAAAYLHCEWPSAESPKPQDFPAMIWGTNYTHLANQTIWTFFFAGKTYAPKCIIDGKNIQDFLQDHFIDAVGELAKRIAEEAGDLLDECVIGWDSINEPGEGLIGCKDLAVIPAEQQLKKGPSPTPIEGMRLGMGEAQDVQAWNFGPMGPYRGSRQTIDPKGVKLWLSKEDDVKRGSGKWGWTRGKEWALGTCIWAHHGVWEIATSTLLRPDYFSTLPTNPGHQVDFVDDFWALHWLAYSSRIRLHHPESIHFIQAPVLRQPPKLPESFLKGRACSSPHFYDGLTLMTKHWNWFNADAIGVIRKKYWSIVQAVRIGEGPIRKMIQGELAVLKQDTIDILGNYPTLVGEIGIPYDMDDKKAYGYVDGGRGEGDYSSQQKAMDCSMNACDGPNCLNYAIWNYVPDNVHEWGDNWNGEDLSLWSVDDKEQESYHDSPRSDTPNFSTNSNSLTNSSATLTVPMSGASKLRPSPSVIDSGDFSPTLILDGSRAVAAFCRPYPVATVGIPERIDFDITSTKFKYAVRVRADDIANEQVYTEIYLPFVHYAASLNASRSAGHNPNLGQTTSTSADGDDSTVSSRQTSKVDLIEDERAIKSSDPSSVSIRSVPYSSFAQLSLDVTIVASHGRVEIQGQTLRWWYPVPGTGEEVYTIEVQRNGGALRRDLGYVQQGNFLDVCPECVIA

CCCCCCCCCCCCCC=CC(O)C(COC1OC(CO)C(O)C(O)C1O)NC(=O)CCCCCNc1ccc([N+](=O)[O-])c2nonc12 (stereo not drawn) [C6-NBD-GlcCer, C6-NBD-glucosylceramide]
Turnover (mol C6-NBD-Ceramide / sec/ mol enzyme) ([1]; 0.3 mol% C6-NBD-GlcCer): 0.0009 mol C6-NBD-Ceramide / sec/ mol enzyme and 0.0010 mol C6-NBD-Ceramide / sec/ mol enzyme | Turnover (mol C6-NBD-Ceramide / sec/ mol enzyme) ([1]; 0.7 mol% C6-NBD-GlcCer): 0.0024 mol C6-NBD-Ceramide / sec/ mol enzyme and 0.0025 mol C6-NBD-Ceramide / sec/ mol enzyme | Turnover (mol C6-NBD-Ceramide / sec/ mol enzyme) ([1]; 1.0 mol% C6-NBD-GlcCer): 0.0039 mol C6-NBD-Ceramide / sec/ mol enzyme and 0.0038 mol C6-NBD-Ceramide / sec/ mol enzyme | Turnover (mol C6-NBD-Ceramide / sec/ mol enzyme) ([1]; 1.5 mol% C6-NBD-GlcCer): 0.0051 mol C6-NBD-Ceramide / sec/ mol enzyme | Turnover (mol C6-NBD-Ceramide / sec/ mol enzyme) ([1]; 2.0 mol% C6-NBD-GlcCer): 0.0066 mol C6-NBD-Ceramide / sec/ mol enzyme and 0.0051 mol C6-NBD-Ceramide / sec/ mol enzyme | Turnover (mol C6-NBD-Ceramide / sec/ mol enzyme) ([1]; 2.5 mol% C6-NBD-GlcCer): 0.0073 mol C6-NBD-Ceramide / sec/ mol enzyme and 0.0067 mol C6-NBD-Ceramide / sec/ mol enzyme | Turnover (mol C6-NBD-Ceramide / sec/ mol enzyme) ([1]; 3.0 mol% C6-NBD-GlcCer): 0.0085 mol C6-NBD-Ceramide / sec/ mol enzyme and 0.0080 mol C6-NBD-Ceramide / sec/ mol enzyme | Turnover (mol C6-NBD-Ceramide / sec/ mol enzyme) ([1]; 3.5 mol% C6-NBD-GlcCer): 0.0076 mol C6-NBD-Ceramide / sec/ mol enzyme and 0.0074 mol C6-NBD-Ceramide / sec/ mol enzyme | Turnover (mol C6-NBD-Ceramide / sec/ mol enzyme) ([1]; 4.0 mol% C6-NBD-GlcCer): 0.0074 mol C6-NBD-Ceramide / sec/ mol enzyme and 0.0082 mol C6-NBD-Ceramide / sec/ mol enzyme | Turnover (mol C6-NBD-Ceramide / sec/ mol enzyme) ([1]; 4.5 mol% C6-NBD-GlcCer): 0.0064 mol C6-NBD-Ceramide / sec/ mol enzyme and 0.0070 mol C6-NBD-Ceramide / sec/ mol enzyme | Turnover (mol C6-NBD-Ceramide / sec/ mol enzyme) ([1]; 5.0 mol% C6-NBD-GlcCer): 0.0075 mol C6-NBD-Ceramide / sec/ mol enzyme and 0.0072 mol C6-NBD-Ceramide / sec/ mol enzyme | Km, Michaelis-Menten best-fit value [1]: 1.734 mol% | Vmax, Michaelis-Menten best-fit value, Turnover [1]: 0.01082 s⁻¹ | KM [1]: 1.73 ± 0.37 mol%

Cc1[nH]c2ccc(CNc3nccc(N)n3)cc2c1C [Hit 6]
LD50 (lethal dose 50) [2]: 181.3 µM | IC50 [3]: 2000 nM

Cc1ccsc1CN(CCN(C)C)Cc1ccc2nonc2c1 [Hit 10]
LD50 (lethal dose 50) [2]: 301.8 µM

O=c1ccc2nc3ccc(O[C@@H]4O[C@H](CO)[C@@H](O)[C@H](O)[C@H]4O)cc3oc-2c1 [Resorufin 3β-D-glp, resorufin-3β-D-glucopyranoside, reference compound]
Turnover, min-1 (Mean) ([4]; 0.8 µM Resorufin 3β-D-glp): 0.1166 min⁻¹ | Turnover, min-1 (Mean) ([4]; 1.6 µM Resorufin 3β-D-glp): 0.2022 min⁻¹ | Turnover, min-1 (Mean) ([4]; 3.125 µM Resorufin 3β-D-glp): 0.2828 min⁻¹ | Turnover, min-1 (Mean) ([4]; 6.25 µM Resorufin 3β-D-glp): 0.5182 min⁻¹ | Turnover, min-1 (Mean) ([4]; 12.5 µM Resorufin 3β-D-glp): 0.7736 min⁻¹ | Turnover, min-1 (Mean) ([4]; 25 µM Resorufin 3β-D-glp): 1.399 min⁻¹ | Turnover, min-1 (Mean) ([4]; 50 µM Resorufin 3β-D-glp): 2.307 min⁻¹ | Turnover, min-1 (Mean) ([4]; 100 µM Resorufin 3β-D-glp): 3.899 min⁻¹ | Vmax, Michaelis-Menten best-fit value, Turnover ([4]; res-glp as Sgl1 substrate, source data Fig S6i): 9.522 min⁻¹ | Km ([4]; res-glp as Sgl1 substrate, source data Fig S6i, read-out: Km, Michaelis-Menten best-fit value): 147 µM

CC(C)[C@@H](C)/C=C/[C@@H](C)[C@H]1CC[C@H]2C3=CC=C4C[C@@H](O[C@@H]5O[C@H](CO)[C@@H](O)[C@H](O)[C@H]5O)CC[C@]4(C)[C@H]3CC[C@]12C [erg-glc, ergosterol 3β-D-glucoside]
Turnover (mol ergosterol / sec/ mol enzyme) ([1]; 0.07 mol% Erg-glc): 0.1064 mol ergosterol / sec/ mol enzyme and 0.1082 mol ergosterol / sec/ mol enzyme | Turnover (mol ergosterol / sec/ mol enzyme) ([1]; 0.10 mol% Erg-glc): 0.1849 mol ergosterol / sec/ mol enzyme and 0.1742 mol ergosterol / sec/ mol enzyme | Turnover (mol ergosterol / sec/ mol enzyme) ([1]; 0.20 mol% Erg-glc): 0.3045 mol ergosterol / sec/ mol enzyme and 0.2862 mol ergosterol / sec/ mol enzyme | Turnover (mol ergosterol / sec/ mol enzyme) ([1]; 0.50 mol% Erg-glc): 0.4688 mol ergosterol / sec/ mol enzyme and 0.4091 mol ergosterol / sec/ mol enzyme | Turnover (mol ergosterol / sec/ mol enzyme) ([1]; 0.90 mol% Erg-glc): 0.6080 mol ergosterol / sec/ mol enzyme and 0.5033 mol ergosterol / sec/ mol enzyme | Turnover (mol ergosterol / sec/ mol enzyme) ([1]; 1.20 mol% Erg-glc): 0.5944 mol ergosterol / sec/ mol enzyme and 0.5189 mol ergosterol / sec/ mol enzyme | Turnover (mol ergosterol / sec/ mol enzyme) ([1]; 2.00 mol% Erg-glc): 0.6438 mol ergosterol / sec/ mol enzyme and 0.6016 mol ergosterol / sec/ mol enzyme | Km, Michaelis-Menten best-fit value [1]: 0.3118 mol% | Vmax, Michaelis-Menten best-fit value, Turnover [1]: 0.721 s⁻¹ | KM [1]: 0.31 ± 0.04 mol%

O=c1ccc2nc3ccc(O)cc3oc-2c1 [resorufin]
Picomol of resorufin produced ([4]; substrate concentration 0.8 µM): 13.6869 Picomol and 10.2624 Picomol and 15.333 Picomol and 8.2899 Picomol and 7.897 Picomol and 8.1513 Picomol and 7.834 Picomol and 9.766 Picomol | Picomol of resorufin produced ([4]; substrate concentration 1.6 µM): 22.652 Picomol and 16.8084 Picomol and 22.0089 Picomol and 13.8077 Picomol and 14.311 Picomol and 13.7411 Picomol and 16.5589 Picomol and 17.8661 Picomol | Picomol of resorufin produced ([4]; substrate concentration 3.125 µM): 38.3651 Picomol and 20.7516 Picomol and 22.1703 Picomol and 24.2149 Picomol and 22.4235 Picomol and 18.9404 Picomol and 21.8512 Picomol and 25.5122 Picomol | Picomol of resorufin produced ([4]; substrate concentration 6.25 µM): 43.9839 Picomol and 34.2216 Picomol and 50.5101 Picomol and 33.7929 Picomol and 44.5629 Picomol and 40.9973 Picomol and 53.26 Picomol and 50.9019 Picomol | Picomol of resorufin produced ([4]; substrate concentration 12.5 µM): 71.213 Picomol and 36.0642 Picomol and 41.6688 Picomol and 71.5524 Picomol and 70.9838 Picomol and 75.8794 Picomol and 76.3919 Picomol and 81.7237 Picomol | Picomol of resorufin produced ([4]; substrate concentration 25 µM): 72.1659 Picomol and 113.232 Picomol and 127.381 Picomol and 122.744 Picomol and 134.032 Picomol and 119.303 Picomol and 123.078 Picomol and 139.365 Picomol | Picomol of resorufin produced ([4]; substrate concentration 50 µM): 180.011 Picomol and 203.084 Picomol and 186.676 Picomol and 209.238 Picomol and 194.059 Picomol and 207.198 Picomol and 188.267 Picomol and 183.529 Picomol | Picomol of resorufin produced ([4]; substrate concentration 100 µM): 305.03 Picomol and 313.72 Picomol and 318.728 Picomol and 338.834 Picomol and 336.378 Picomol and 332.942 Picomol and 323.184 Picomol and 353.074 Picomol
